Assay results: patent US20070203225A1, “METHOD OF INCREASING ENDOGENOUS ADIPONECTIN PRODUCTION AND LEPTIN PRODUCTION” (priority 2001, published 2007)
“Also recorded” adds a separate entry of the source.

How the values were obtained:
[1] = system: isolated rat adipocytes; experiment: Leptin secretion/production by isolated cultured rat adipocytes (RIA); assay type: cell-based
Description: (§1) Cell isolation/preparation: Adipocytes are prepared from epididymal fat pads from male Sprague-Dawley rats weighing 300-600 g. Epididymal fat depots are resected from halothane anesthetized rats under aseptic conditions and adipocytes are isolated by collagenase digestion by the Rodbell method (Rodbell M. Metabolism of isolated fat cells. I. Effects of hormones on glucose metabolism and lipolysis. J Biol Chem. 1964; 239: 375-380), with minor modifications as previously described (Mueller W M, Gregoire F M, Stanhope K L, Mobbs C V, Mizuno T M, Warden C H, Stem J S, Havel P J. Evidence that glucose metabolism regulates leptin secretion from isolated adipocytes. Endocrinology 139: 551-558, 1998; Mueller W M, Stanhope K L, Gregoire F, Evans J L, Havel P J. Effects of metformin and vanadium on leptin secretion from cultured rat adipocytes. Obesity Res. 8: 530-539, 2000; Medina E A, Stanhope K L, Mizuno T M, Mobbs C V, Gregoire F, Hubbard N E, Erickson K L, Havel P J. Effects of tumor necrosis factor alpha on leptin secretion and gene expression: relationship to changes of glucose metabolism in isolated rat adipocytes. Int J Obes Relat Metab Disord. 23: 896-903, 1999.). The isolated adipocytes are then incubated for 30 minutes at 37 C before being plated and cultured on Matrigel-coated plates.
Adipocyte Culture: Adipocytes are maintained in culture anchored to a basement membrane matrix (Matrigel, Becton Dickinson, Franklin Lakes, N.J.) or collagen from Cohesion Technologies, (Palo Alto, Calif.). Although all in vitro systems have inherent advantages and disadvantages, advantages of this system compared with cultures containing free-floating adipocytes are that the matrix simulates their normal basement membrane attachment and that the cells are maintained in close proximity to each other, allowing direct cell to cell contact. Together the cell contact and basement membrane attachment help to maintain differentiation, since adipocytes have a strong tendency to dedifferentiate in long-term (>24 h) culture. In addition, the matrix and the small amount of serum in the media both contain growth factors, which are also likely to help in maintaining cell differentiation. Furthermore, the adipocytes in this system are not exposed to toxic levels of oxygen at the interface of the media and the incubator atmosphere, as opposed to free-floating adipocytes which aggregate at the surface of the media. An advantage of the system over those containing minced adipose tissue is that all of the cells in the culture are equally exposed to the nutrients and the oxygen dissolved in the media. Thus, although clearly different from the in vivo situation, this system provides a more physiological environment than most systems for maintaining adipocytes in long-term culture.
In culturing each suspension, Matrigel is first thawed on ice to a liquid and uniformly applied to the surface of culture dishes (300 μl Matrigel/35 mm well). After the incubation period, 150 μl of the adipocyte suspension (2:1 ratio of packed cells to media) are plated on the Matrigel or collagen matrix. Adipocytes from each suspension are thoroughly mixed with a transfer pipette before plating to insure that a similar number adipocytes with a similar size distribution are added to the control and experimental wells for each suspension. The warmth of the added cells and buffer causes the Matrigel to gel around the adipocytes, or the neutralization of the acidic pH of the collagen solution to 7.0 solidifies the collagen, and both of these techniques effectively anchor the adipocytes to the culture dish. After a 30 minute incubation at 37° C., 2 ml of warm culture medium is added. The cells are maintained in an incubator at 37° C. for 96 hours with 6% CO2. Aliquots of adipocytes from each animal are divided into wells, with the different concentrations of insulin or other agents to be tested. In each plate an appropriate control well contains adipocytes from the same animal. […]

[2] = system: cultured rat adipocytes; experiment: Adiponectin secretion by isolated cultured rat adipocytes over 96 h; assay type: cell-based
Description: Several studies have reported that thiazolidenediones (TZDs), agonists of PPARγ, increase adiponectin expression and circulating levels in animals (Maeda, 2001; Yamauchi, 2001a; Ye, 2003). TZD (10 μM Troglitazone) stimulated of adiponectin secretion from cultured rat adipocytes from 3 different depots (n=6). Mesenteric fat produced the largest amount of adiponectin over 96 hours in culture. (FIG. 5A). Adiponectin secretion from both the control- and TZD-treated adipocytes was well correlated with the glucose utilization (control, r=0.79; p<0.001); (TZD-treated, r=0.84, p=<0.0001, FIG. 5B) showing that, similar to leptin production, glucose metabolism also is involved in the regulation of adiponectin production by adipocytes.
Insulin increased adiponectin production from 3 different fat depots, however as in the experiments with troglitazone, the mesenteric depot produced the most adiponectin (FIG. 6B). Like leptin, both basal and insulin-stimulated adiponectin secretion was highly correlated to glucose utilization (r=0.91, p<0.0001) (FIG. 6C), and inversely related to the proportion of glucose metabolized to lactate (r=−0.81, p<0.0001) (FIG. 6D).
Also paralleling the regulation of leptin, adiponectin secretion by isolated cultured adipocytes was increased during 96 h culture by inhibitors of PDH-K. DTNB (100 μM) increased adiponectin secretion by 40% (p<0.03, n=6, FIG. 7A). DCA (2 mM) increased adiponectin secretion by 23% (p<0.025, n=6, FIG. 7B). The increase in adiponectin induced by DTNB was highly correlated with glucose utilization (r=0.95, p<0.004). Furthermore in adipocytes transfected with antisense directed at PDH-K, adiponectin secretion was stimulated by 24.3±8.4%, p<0.05, n=7, FIG. 7C).
as §1
Adipocyte Culture: Adipocytes are maintained in culture anchored to a basement membrane matrix (Matrigel, Becton Dickinson, Franklin Lakes, N.J.) or collagen from Cohesion Technologies, (Palo Alto, Calif.). […]

[3] = DTNB 100.0 μM + insulin 0.48 nM vs control (insulin only)
[4] = DTNB 100.0 μM + insulin 0.48 nM, isolated rat adipocytes, 96 h culture

Molecule | % ΔLeptin Produced over 96 h [1, 3] | % Δ[Leptin] (ng/ml) at 96 h [1, 3] | Change in Parameter: Leptin (ng) Produced over 96 h [1, 3] | Change in Parameter: [Leptin] (ng/ml) at 96 h [1, 3] | Leptin (ng) Produced over 96 h [1, 4] [ng] | [Leptin] (ng/ml) at 96 h [1, 4] [ng/mL] | effect on leptin production/secretion (in words) ([1]; PDH kinase inhibitors DTNB, NEM, DCA, cultured adipocytes) | increase of leptin production/secretion ([1]; PDH kinase inhibitors vs control: DTNB 100 μM, NEM 0.1 μM, DCA 2 mM, cultured adipocytes) | increase of adiponectin secretion ([2]; DTNB 100 μM, DCA 2 mM, 96 h culture, n=6) [%] | effect on adiponectin secretion (in words) ([2]; PDH kinase inhibitors DTNB and DCA) | effect on leptin secretion (in words) ([1]; insulin 0.16 to 1.6 nM) | adiponectin secretion, 96 hr total ([2]; 1.6 nM insulin, control 179.9±35.3 ng, n=6) [ng] | effect on adiponectin secretion (in words) ([2]; insulin (1.6 nM), 96 hour culture)
O=C(O)c1cc(SSc2ccc([N+](=O)[O-])c(C(=O)O)c2)ccc1[N+](=O)[O-] [DTNB, 5,5′-Dithiobis(2-nitrobenzoate)] | +57.3 ± 5.8% | +60.2 ± 8.3% | +18.4 ± 2.3 ng | +6.3 ± 0.8 ng/ml | 55.6 ± 2.9 | 17.2 ± 0.9 | most potent stimulator; also recorded: increase | approximately 60% | 40 | increase |  |  | 
insulin |  |  |  |  |  |  |  |  |  |  | concentration-dependent increases; also recorded: concentration dependent increase | 312.3 ± 44 | significant increase; also recorded: increases
